What was measured:
[1] = Determination of lactone–zwitterion equilibrium constant KL–Z; assay type: physicochemical; conditions: 1:1 (v/v) dioxane–water
Description: Detailed descriptions of the materials and methods are provided in the supporting information. Multifunctional rhodamine–HaloTag ligands (13HTL–16HTL and 18HTL–20HTL) were synthesized using palladium-catalyzed cross-coupling reactions to install 3-carboxyazetidine moieties onto rhodamine scaffolds, followed by amide bond formation with biotin–PEG2–NH2, (S)-JQ1–PEG2–NH2, or (R)-JQ1–PEG2–NH2. Spectroscopic properties (λabs, λem, ε, and Φf) were determined in 10 mM HEPES, pH 7.3. The lactone–zwitterion equilibrium constants (KL–Z) were measured in 1:1 (v/v) dioxane–water mixtures. Octanol–water distribution coefficients (logD7.4) were determined by miniaturized shake-flask partitioning experiments using PBS (pH 7.4) and 1-octanol. Cell culture experiments employed HEK293T, U2OS, and Neuro2a cells transfected with HaloTag fusion constructs and labeled with ligands (100 nM to 1 μM, 0.5 to 2 h at 37 °C), followed by fluorescence microscopy using confocal or lattice light-sheet microscopy. Affinity purification studies utilized streptavidin magnetic beads to capture biotin-labeled HaloTag conjugates, with analysis by SDS-PAGE and in-gel fluorescence detection. […]
Reported values for extinction coefficient (ε) are averages of at least two […]
Determination of KL−Z. The lactone−zwitterion equilibrium constant (KL−Z) was calculated as described previously2-4 using equation 1: […]
where εdw is the extinction coefficient of the dyes in a 1:1 (v/v) dioxane:water solvent mixture containing 0.01% (v/v) triethylamine; this dioxane−water mixture was chosen to give a large range of KL−Z values,3 and the triethylamine additive ensures the rhodamines are in the net neutral form.
The εmax is the maximal extinction coefficient, measured in 0.1% (v/v) trifluoroacetic acid in 2,2,2-trifluoroethanol (TFE) or ethanol. […]

[2] = test system: mitochondria from HEK293T cells expressing OMP25–msGFP–HaloTag; assay: Affinity capture of mitochondria with streptavidin beads, in-gel fluorescence; assay type: cell-based; conditions: for capture efficiency: 100 nM ligand, mean ± SEM; for mitochondria pulldown efficiency at 10-fold higher concentration: 1 µM ligand vs 100 nM
Description: We then used 15HTL and 16HTL to purify mitochondria from these cells by incubation followed by washing and cell lysis. The crude supernatant was incubated with streptavidin-coated magnetic microbeads and washed. The bead-bound mitochondria were lysed, and the resulting solution was analyzed by SDS–PAGE/in-gel fluorescence (Fig. 5 A and B). […] The lower in-gel fluorescence brightness for the wash and bound fractions of 15HTL or 16HTL compared to the wash and bound fractions of their parent dyes 5HTL or 6HTL (Fig. 5 B and C) stems from the variability of transient transfection and band broadening due to the larger ligand. […]
Affinity capture and in-gel fluorescence quantification. Affinity capture pulldown isolation experiments of biotin-labeled HaloTag fusion proteins were performed on ice-cold isolation buffer (IB) consisting of KCl (0.18 M), ethylene glycol-bis(β-aminoethyl ether)-N,N,N′,N′-tetraacetic acid (EGTA; 1 mM), 3-(N-morpholino)propanesulfonic acid (MOPS; 5 mM); the pH was adjusted to pH = 7.35 using KOH(aq).15 StrepTactin Microbeads (IBA Lifesciences, 6-5510-050) were used as capture reagents as these beads had lowest amount of background observed in our hands. These beads were kept at 4 °C and blocked in IB buffer with PMSF and 1% (v/v) bovine serum albumin (BSA; Jackson ImmunoResearch, 001-000-162) with rotation at 4 °C for 30 min. HEK293T cells were scraped with 200 µL IB and homogenized using 12 strokes with a 27G syringe. The resulting homogenate was spun at 4 °C at 800 g for 5 min to pellet large cellular debris. 50 µL of freshly blocked StrepTactin microbeads were added to the supernatant and incubated for 30 min at 4 °C with slow rotation. After incubation, tubes were placed in DynaMag2 (ThermoFisher, 12321D) magnetic racks and washed twice with IB+PMSF. All wash steps were kept at 4 °C (cold room).
The post-bead supernatant and wash volumes were pooled and spun at 15,000 g for 12 min. This last step pelleted the unbound mitochondria for final analysis of capture efficiency. The bead fraction and the pooled/pelleted fraction were then solubilized using the lysis buffer containing 1× PBS, 2% (v/v) SDS, 1% (v/v) Triton x-100, 10 mM EDTA, and protease inhibitors (2 mM PMSF, aprotinin, leupeptin, and pepstatin A). Samples were then incubated at 50 °C for 3–4 min after the addition of Laemmli sample buffer (SB; Bio-Rad, 1610747) with β-mercaptoethanol (Bio-Rad, 1610710). For protein detection, 10–20 µL of the sample was subjected to SDS-PAGE, using 10% Tris-Glycine gels (TGX) (Bio-Rad, 5671034) with Tris-Glycine buffer (Bio-Rad, 1610732). The affinity capture pulldown efficiency was monitored using in-gel fluorescence. The msGFP signal from HaloTag-TEV-4×GS-msGFP-mito after cell lysis and SDS-PAGE was analyzed, in-gel, using a Bio-Rad Chemidoc MP imager (Bio-Rad) through GFP fluorescence excitation and emission filters. Data were quantified by densitometry using Fiji.14 Capture efficiency was calculated comparing the total GFP signal recovered from StrepTactin beads vs the signal recovered from the high speed spin of the bead supernatant and pooled wash volumes. […]

Compound | KL–Z [1] | capture efficiency [2] [%] | mitochondria pulldown efficiency at 10-fold higher concentration [2] | protein capture ([2]; biotin-free ligands)
O=C(CCCCC1SCC2NC(=O)NC21)NCCOCCOCCNC(=O)C1C[N+](=c2ccc3c(-c4cc(C(=O)NCCOCCOCCCCCCCl)ccc4C(=O)[O-])c4ccc(N5CCC5)cc4oc-3c2)C1 (stereo not shown) [13HTL, biotin–JF549–HaloTag ligand] | 5.9 |  |  | 
C[Si]1(C)C2=CC(=[N+]3CC(C(=O)NCCOCCOCCNC(=O)CCCC[C@@H]4SC[C@@H]5NC(=O)N[C@@H]54)C3)C=CC2=C(c2cc(C(=O)NCCOCCOCCCCCCCl)ccc2C(=O)[O-])c2ccc(N3CCC3)cc21 (stereo partly shown) [15HTL, biotin–JF646–HaloTag ligand] | 0.0086 | 84.2 ± 1.8 | did not increase mitochondria pulldown efficiency | 
CC1(C)C2=CC(=[N+]3CC(C(=O)NCCOCCOCCNC(=O)CCCC[C@@H]4SC[C@@H]5NC(=O)N[C@@H]54)C3)C=CC2=C(c2cc(C(=O)NCCOCCOCCCCCCCl)ccc2C(=O)[O-])c2ccc(N3CCC3)cc21 (stereo partly shown) [14HTL, biotin–JF608–HaloTag ligand] | 0.17 |  |  | 
C[Si]1(C)C2=CC(=[N+]3CC(F)(C(=O)NCCOCCOCCNC(=O)CCCC[C@@H]4SC[C@@H]5NC(=O)N[C@@H]54)C3)C=CC2=C(c2cc(C(=O)NCCOCCOCCCCCCCl)ccc2C(=O)[O-])c2ccc(N3CC(F)C3)cc21 (stereo partly shown) [16HTL, biotin–JF635–HaloTag ligand] | 0.0032 | 88.2 ± 1.1 | did not increase mitochondria pulldown efficiency | 
C[Si]1(C)c2cc(N3CC(F)C3)ccc2C2(OC(=O)c3ccc(C(=O)NCCOCCOCCCCCCCl)cc32)c2ccc(N3CC(F)C3)cc21 [6HTL, JF635–HaloTag ligand, reference compound] | 0.0048 |  |  | no appreciable protein capture

Source: paper PMC12595484, “Optimizing multifunctional fluorescent ligands for intracellular labeling” (Proceedings of the National Academy of Sciences of the …, 2025)
